Where a SMILES comes first, the peptide text is derived from it. Bridges are numbered along the chain shown (N, C = ends). [ ]: non-standard residue; d: D form. The star is where a group is joined. hPhe(3-Cl-4-CF3) = N[C@@H](CCc1ccc(C(F)(F)F)c(Cl)c1)C(=O)O; NPrPhe(4-CF3) = CCCN[C@@H](Cc1ccc(C(F)(F)F)cc1)C(=O)O; NMeGly(cPent) = CN[C@H](C(=O)O)C1CCCC1; Pro(4,4-F2) = O=C(O)[C@@H]1CC(F)(F)CN1; NMeGly(cBu) = CN[C@H](C(=O)O)C1CCC1; Hyp = O=C(O)[C@@H]1C[C@@H](O)CN1; NMeD = CN[C@@H](CC(=O)O)C(=O)O; NMeL = CN[C@@H](CC(C)C)C(=O)O; Morpholide = C1CN(*)CCO1; NMeA = CN[C@@H](C)C(=O)O; Ac5c = NC1(C(=O)O)CCCC1; Aze = O=C(O)[C@@H]1CCN1; Sar = CNCC(=O)O
Experiments:
[1] = test system: human lung cancer strain NCI-H441; assay type: cell-based
Outline: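 Readout: […] after the ATP-based reagent. Compound: serial dilutions in dimethyl sulfoxide.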

HRAS wild-type protein = HRAS wild-type protein (Homo sapiens, UniProt P01112); assay: Binding to HRAS by surface plasmon resonance (SPR), KD and KD ratio to KRAS
Outline: (§1)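 GDP-loaded biotinylated Avi-tag RAS proteins (E. coli-expressed) captured on a Biotin CAPture chip at ~100–300 RU; single-cycle kinetics at 30°C, 100 µL/min, 75 s injections of rising compound concentrations. HBS pH 7.4 running buffer with 1 mM DTT, 10 mM MgCl2, 10 µM GDP, 4% DMSO. KD from 1:1 binding fit.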

[2] = biological target: GDP-bound NRAS wild-type protein (Homo sapiens, UniProt P01111); assay: Binding to NRAS by surface plasmon resonance (SPR), KD and KD ratio to KRAS
Outline: as §1

[3] = ratio of the KD value with respect to HRAS wild-type protein to the KD value with respect to KRAS
[4] = ratio of the KD value with respect to GDP-bound NRAS wild-type protein to the KD value with respect to KRAS
[5] = ratio of KD for HRAS wild-type protein to KD for KRAS
[6] = ratio of KD for GDP-bound NRAS wild-type protein to KD for KRAS

Sequence of HRAS wild-type protein (P01112 whole entry): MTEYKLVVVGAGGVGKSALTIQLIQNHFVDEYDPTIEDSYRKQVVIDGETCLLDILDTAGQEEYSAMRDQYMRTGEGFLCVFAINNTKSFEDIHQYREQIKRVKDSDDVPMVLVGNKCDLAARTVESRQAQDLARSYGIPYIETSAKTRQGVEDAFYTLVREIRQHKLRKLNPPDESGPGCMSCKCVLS
Sequence of GDP-bound NRAS wild-type protein (P01111 whole entry): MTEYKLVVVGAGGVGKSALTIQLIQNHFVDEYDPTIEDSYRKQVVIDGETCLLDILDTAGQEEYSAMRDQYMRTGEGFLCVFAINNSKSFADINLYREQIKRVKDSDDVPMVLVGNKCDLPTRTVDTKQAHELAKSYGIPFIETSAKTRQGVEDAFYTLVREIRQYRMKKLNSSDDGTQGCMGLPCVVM

Compound	IC50 [1] [µM]	HRAS /KRAS (HRAS wild-type protein; [3])	NRAS /KRAS [2, 4]	HRAS /KRAS (HRAS wild-type protein; ratio of KD value for HRAS wild-type protein to KD value for KRAS (SPR))	NRAS /KRAS ([2]; ratio of KD value for GDP-bound NRAS wild-type protein to KD value for KRAS (SPR))	HRAS /KRAS (HRAS wild-type protein; [5])	NRAS /KRAS [2, 6]
CCC[C@H]1C(=O)N[C@@H]([C@@H](C)CC)C(=O)N(C)CC(=O)N(C)[C@H]2C/C=C\CCN(C2=O)[C@@H](Cc2ccc(C(F)(F)F)cc2)C(=O)N(C)CC(=O)N[C@@H](CCc2cc(F)c(C(F)(F)F)c(F)c2)C(=O)N(C)[C@@H](C)C(=O)NC2(CC(C)(C)C2)C(=O)N(C)[C@@H](C2CCCC2)C(=O)N(C)[C@H](C(=O)N(C)C)CC(=O)N1C [PP1934]	0.0685	A (a compound having 10 or more and less than 20 is denoted as A)	A (a compound having 10 or more and less than 20 is denoted as A)	–	–	–	–
CCO[C@@H]1C[C@H]2C(=O)NC3(CCC3)C(=O)N(C)[C@@H](C3CCCC3)C(=O)N(C)[C@H](C(=O)N3CCOCC3)CC(=O)N(C)[C@@H](Cc3ccccc3C)C(=O)N[C@@H]([C@@H](C)CC)C(=O)N(C)CC(=O)N(C)[C@H]3CCCCCN(C3=O)[C@@H](Cc3ccc(C(F)(F)F)cc3)C(=O)N(C)CC(=O)N[C@@H](CCc3cc(F)c(C(F)(F)F)c(F)c3)C(=O)N2C1 [PP0931]	0.181	–	–	–	–	B (a compound having 3 or more and less than 10 is denoted as B)	A (a compound having 10 or more and less than 20 is denoted as A)
CCCN1C(=O)[C@@H]2CCN2C(=O)CN(C)C(=O)[C@H]([C@@H](C)CC)NC(=O)[C@H](CC(C)C)N(C)C(=O)C[C@@H](C(=O)N2CCOCC2)N(C)C(=O)[C@H](C2CCCC2)N(C)C(=O)C2(CCCC2)NC(=O)[C@@H]2CCCN2C(=O)[C@H](CCc2ccc(C(F)(F)F)c(Cl)c2)NC(=O)CN(C)C(=O)[C@@H]1Cc1ccc(C(F)(F)F)cc1 [PP0156] ([NMeL]I[Sar][Aze][NPrPhe(4-CF3)][Sar][hPhe(3-Cl-4-CF3)]P[Ac5c][NMeGly(cPent)][NMeD]-Morpholide; lactam N-11)	0.0081	–	–	–	–	B (a compound having 3 or more and less than 10 is denoted as B)	C (A compound having a KD ratio of 0.1 or more and less than 3 is denoted as C)
CCCN1C(=O)[C@@H]2CCN2C(=O)[C@H](C)N(C)C(=O)[C@H]([C@@H](C)CC)NC(=O)[C@H](C2CCC2)N(C)C(=O)C[C@@H](C(=O)N2CCOCC2)N(C)C(=O)[C@H](C2CCCC2)N(C)C(=O)C2(CCCC2)NC(=O)[C@@H]2CC(F)(F)CN2C(=O)[C@H](CCc2ccc(C(F)(F)F)c(Cl)c2)NC(=O)CN(C)C(=O)[C@@H]1Cc1ccc(C(F)(F)F)cc1 [PP0204] ([NMeGly(cBu)]I[NMeA][Aze][NPrPhe(4-CF3)][Sar][hPhe(3-Cl-4-CF3)][Pro(4,4-F2)][Ac5c][NMeGly(cPent)][NMeD]-Morpholide; lactam N-11)	0.0054	–	–	–	–	C (A compound having a KD ratio of 0.1 or more and less than 3 is denoted as C)	C (A compound having a KD ratio of 0.1 or more and less than 3 is denoted as C)
CCCN1C(=O)CN(C)C(=O)CN(C)C(=O)[C@H]([C@@H](C)CC)NC(=O)[C@H](CC(C)C)N(C)C(=O)C[C@@H](C(=O)N(C)C)NC(=O)[C@H](C2CCCC2)N(C)C(=O)C2(CCCC2)NC(=O)[C@@H]2C[C@@H](OCC)CN2C(=O)[C@H](CCc2ccc(C(F)(F)F)c(Cl)c2)NC(=O)CN(C)C(=O)[C@@H]1Cc1ccc(C(F)(F)F)cc1 [PP0359] ([NMeL]I[Sar][Sar][NPrPhe(4-CF3)][Sar][hPhe(3-Cl-4-CF3)][Hyp](Et)[Ac5c][NMeGly(cPent)]D-NMe2; lactam N-11)	0.0331	–	–	–	–	B (a compound having 3 or more and less than 10 is denoted as B)	B (a compound having 3 or more and less than 10 is denoted as B)

Continued, in another order:

IC50 [1] [µM]	Compound	HRAS /KRAS (HRAS wild-type protein; [3])	NRAS /KRAS [2, 4]	HRAS /KRAS (HRAS wild-type protein; ratio of KD value for HRAS wild-type protein to KD value for KRAS (SPR))	NRAS /KRAS ([2]; ratio of KD value for GDP-bound NRAS wild-type protein to KD value for KRAS (SPR))	HRAS /KRAS (HRAS wild-type protein; [5])	NRAS /KRAS [2, 6]
0.105	CCO[C@@H]1C[C@H]2C(=O)NC3(CCC3)C(=O)N(C)[C@@H](C3CCCC3)C(=O)N(C)[C@H](C(=O)N(C)C)CC(=O)N(C)[C@@H](CC)C(=O)N[C@@H]([C@@H](C)CC)C(=O)N(C)CC(=O)N(C)[C@H]3C/C=C\CCN(C3=O)[C@@H](Cc3ccc(C(F)(F)F)cc3)C(=O)N(C)CC(=O)N[C@@H](CCc3cc(C)c(Cl)c(C)c3)C(=O)N2C1 [PP1821]	–	–	A (a compound having 10 or more and less than 20 is denoted as A)	A (a compound having 10 or more and less than 20 is denoted as A)	–	–
0.007	CCC[C@H]1C(=O)N[C@@H]([C@@H](C)CC)C(=O)N(C)CC(=O)N(C)[C@H]2C/C=C\CCN(C2=O)[C@@H](Cc2ccc(C)cc2)C(=O)N(C)CC(=O)N[C@@H](CCc2ccc(C(F)(F)F)c(Cl)c2)C(=O)N2C[C@H](OCC)C[C@H]2C(=O)NC2(CC(C)(C)C2)C(=O)N(C)[C@@H](CC(C)(C)C)C(=O)N(C)[C@H](C(=O)N(C)C)CC(=O)N1C [PP2230]	A (a compound having 10 or more and less than 20 is denoted as A)	A (a compound having 10 or more and less than 20 is denoted as A)	–	–	–	–
